Assay results from patent US20240217978A1 (CHONG KUN DANG PHARMACEUTICAL CORP., priority 2021, published 2024).

target: human adenosine A2a receptor (Homo sapiens (Human), UniProt P29274); experiment: A2a receptor binding affinity, [3H]-NECA radioligand binding test; conditions: [3H]-NECA 37 nM; membrane from HEK-293 cells transfected with human adenosine A2a receptor
Method: The binding affinity of the compounds according to Examples of the present invention to the human adenosine A2a receptor was evaluated by entrusting SB drug discovery in the UK.
A radioligand binding test was conducted by using [3H]-NECA (5′-N-[adenine-2,8-3H]-ethylcarboxamidoadenosine) and an adenosine A2a membrane. As the adenosine A2a membrane, a cell membrane prepared from HEK-293 cells transfected with human adenosine A2a receptor was used. The membrane used for the test was prepared by incubating with a radioligand until equilibrium was reached. In order to separate the radioligand-bound membrane, the unbound radioligand was separated by using Packard filtermate Harverster and glass filter plates.
10 μL of test compound dissolved in binding buffer (50 mM Tris, 10 mM MgCl2, 1 mM EDTA pH 7.4) and 20 μL of [3H]-NECA (final concentration of 37 nM) or reference inhibitor was mixed with 20 μL of A2a membrane in an unbound 96-well plate and incubated at room temperature for one hour. Prior to filtration, a 96-well harvest filter plate was coated with 0.33% polyethylenimine for 30 minutes and then washed with assay buffer. The binding reaction was transferred to the filter plate and washed three times with wash buffer. The dish was then dried, scintillant was added, and radioactivity was counted in a scintillation counter (Topcount NXT, Packard).
The binding affinity IC50 (μM) for the human adenosine A2a receptor obtained according to the above experimental method is shown in the table below.

Sequence of human adenosine A2a receptor (P29274 whole entry): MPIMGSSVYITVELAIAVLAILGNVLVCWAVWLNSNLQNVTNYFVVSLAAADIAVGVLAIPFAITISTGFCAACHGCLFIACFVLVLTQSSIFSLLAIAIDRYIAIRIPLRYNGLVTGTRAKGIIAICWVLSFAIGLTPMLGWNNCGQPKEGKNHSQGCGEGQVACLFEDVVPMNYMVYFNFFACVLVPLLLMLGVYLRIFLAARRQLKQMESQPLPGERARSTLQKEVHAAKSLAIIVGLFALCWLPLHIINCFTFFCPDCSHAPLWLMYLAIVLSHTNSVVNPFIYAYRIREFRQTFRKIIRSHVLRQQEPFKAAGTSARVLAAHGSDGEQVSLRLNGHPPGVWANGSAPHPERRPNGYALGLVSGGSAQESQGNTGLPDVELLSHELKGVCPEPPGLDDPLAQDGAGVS

| Structure (SMILES) | IC50 [nM] |
| --- | --- |
| C[C@H](Nc1nc(N)n2nc(-c3ccco3)nc2n1)C(=O)N1CC2(CCN(Cc3ccc(F)cc3F)CC2)C1 [Example 30, (S)-2-((7-amino-2-(furan-2-yl)-[1,2,4]triazolo[1,5-a][1,3,5]triazin-5-yl)amino)-1-(7-(2,4-difluorobenzyl)-2,7-diazaspiro[3.5]nonan-2-yl)propan-1-one] | 1 |
| C[C@H](Nc1nc(N)n2nc(-c3ccco3)nc2n1)C(=O)N1CCC2(CC1)CN(Cc1ccc(F)cc1F)C2 [Example 31, (S)-2-((7-amino-2-(furan-2-yl)-[1,2,4]triazolo[1,5-a][1,3,5]triazin-5-yl)amino)-1-(2-(2,4-difluorobenzyl)-2,7-diazaspiro[3.5]nonan-7-yl)propan-1-one] | 1 |
| C[C@H](Nc1nc(N)n2nc(-c3ccco3)nc2n1)C(=O)N1C[C@@H]2C[C@H]1CN2Cc1ccc(F)cc1F [Example 32, (S)-2-((7-amino-2-(furan-2-yl)-[1,2,4]triazolo[1,5-a][1,3,5]triazin-5-yl)amino)-1-((1S, 4S)-5-(2,4-difluorobenzyl)-2,5-diazabicyclo[2.2.1]heptan-2-yl)propan-1-one] | 0.5 |
| Nc1nc(N2C[C@H](O)C[C@H]2C(=O)N2CCN(c3ccc(F)cc3F)CC2)nc2nc(-c3ccco3)nn12 [Example 37] | 12 |
| Cc1ccc(-c2nc3nc(N4CCC[C@H]4C(=O)N4CCN(Cc5ccc(F)cc5F)CC4)nc(N)n3n2)o1 [Example 40, (S)-(1-(7-amino-2-(5-methylfuran-2-yl)-[1,2,4]triazolo[1,5-a][1,3,5]triazin-5-yl)pyrrolidin-2-yl)(4-(2,4-difluorobenzyl)piperazin-1-yl)methanone] | 4 |
| Nc1nc(N2CCC[C@H]2C(=O)N2CCN(Cc3ccc(F)cc3F)CC2)nc2oc(-c3ccco3)nc12 [Example 41, (S)-(1-(7-amino-2-(furan-2-yl)oxazolo[5,4-d]pyrimidin-5-yl)pyrrolidin-2-yl)(4-(2,4-difluorobenzyl)piperazin-1-yl)methanone] | 13 |
| CCC(O)(CC)CN1CCN(C(=O)[C@@H]2CCCN2c2nc(N)n3nc(-c4ccco4)nc3n2)CC1 [Example 42, (S)-(1-(7-amino-2-(furan-2-yl)-[1,2,4]triazolo[1,5-a][1,3,5]triazin-5-yl)pyrrolidin-2-yl)(4-(2-ethyl-2-hydroxybutyl)piperazin-1-yl)methanone] | 11 |
| CCC(F)(CC)CN1CCN(C(=O)[C@@H]2CCCN2c2nc(N)n3nc(-c4ccco4)nc3n2)CC1 [Example 43, (S)-(1-(7-amino-2-(furan-2-yl)-[1,2,4]triazolo[1,5-a][1,3,5]triazin-5-yl)pyrrolidin-2-yl)(4-(2-ethyl-2-fluorobutyl)piperazin-1-yl)methanone] | 11 |
| Nc1nc(N2CCC[C@H]2C(=O)N2C[C@@H]3C[C@H]2CN3Cc2ccc(F)cc2F)nc2nc(-c3ccco3)nn12 [Example 44, ((S)-1-(7-amino-2-(furan-2-yl)-[1,2,4]triazolo[1,5-a][1,3,5]triazin-5-yl)pyrrolidin-2-yl)((1S,4S)-5-(2,4-difluorobenzyl)-2,5-diazabicyclo[2.2.1]heptan-2-yl)methanone] | 10 |
| Nc1nc(N2CCC[C@H]2C(=O)N2CCN(Cc3ccc(F)cc3)CC2)nc2nc(-c3ccco3)nn12 [Example 45, (S)-(1-(7-amino-2-(furan-2-yl)-[1,2,4]triazolo[1,5-a][1,3,5]triazin-5-yl)pyrrolidin-2-yl)(4-(4-fluorobenzyl)piperazin-1-yl)methanone] | 19 |
| Nc1nc(N2CCC[C@H]2C(=O)N2CCN(C(=O)c3ccccc3)CC2)nc2nc(-c3ccco3)nn12 [Example 46] | 6 |
| CCCCN1CCN(C(=O)[C@@H]2CCCN2c2nc(N)n3nc(-c4ccco4)nc3n2)CC1 [Example 47, (S)-(1-(7-amino-2-(furan-2-yl)-[1,2,4]triazolo[1,5-a][1,3,5]triazin-5-yl)pyrrolidin-2-yl)(4-butylpiperazin-1-yl) methanone] | 8 |
| Nc1nc(N2CCC[C@H]2C(=O)N2CCN(CC(F)(F)F)CC2)nc2nc(-c3ccco3)nn12 [Example 48, (S)-(1-(7-amino-2-(furan-2-yl)-[1,2,4]triazolo[1,5-a][1,3,5]triazin-5-yl)pyrrolidin-2-yl)(4-(2,2,2-trifluoroethyl)piperazin-1-yl)methanone] | 13 |
| CC1CN(C(=O)[C@@H]2CCCN2c2nc(N)n3nc(-c4ccco4)nc3n2)CC(C)N1Cc1ccc(F)cc1F (stereo partly drawn) [Example 49, ((S)-1-(7-amino-2-(furan-2-yl)-[1,2,4]triazolo[1,5-a][1,3,5]triazin-5-yl)pyrrolidin-2-yl)(4-(2,4-difluorobenzyl)-3,5-dimethylpiperazin-1-yl)methanone] | 3 |
| Nc1nc(N2CCC[C@H]2C(=O)N2CC3CCC(C2)N3Cc2ccc(F)cc2F)nc2nc(-c3ccco3)nn12 [Example 50, ((S)-1-(7-amino-2-(furan-2-yl)-[1,2,4]triazolo[1,5-a][1,3,5]triazin-5-yl)pyrrolidin-2-yl)(8-(2,4-difluorobenzyl)-3,8-diazabicyclo[3.2.1]octan-3-yl)methanone] | 9 |
| C[C@@H]1CN(Cc2ccc(F)cc2F)CCN1C(=O)[C@@H]1CCCN1c1nc(N)n2nc(-c3ccco3)nc2n1 [Example 51, ((S)-1-(7-amino-2-(furan-2-yl)-[1,2,4]triazolo[1,5-a][1,3,5]triazin-5-yl)pyrrolidin-2-yl)((R)-4-(2,4-difluorobenzyl)-2-methylpiperazin-1-yl)methanone] | 13 |
| Nc1nc(N2CCC[C@H]2C(=O)N2CCC3(CC2)CN(Cc2ccc(F)cc2F)C3)nc2nc(-c3ccco3)nn12 [Example 52, (S)-(1-(7-amino-2-(furan-2-yl)-[1,2,4]triazolo[1,5-a][1,3,5]triazin-5-yl)pyrrolidin-2-yl)(2-(2,4-difluorobenzyl)-2,7-diazaspiro[3.5]nonan-7-yl)methanone] | 16 |
| Nc1nc(N2CCC[C@H]2C(=O)N2CCN(CCN3CCOCC3)CC2)nc2nc(-c3ccco3)nn12 [Example 53, 4-(2-(4-((7-amino-2-(furan-2-yl)-[1,2,4]triazolo[1,5-a][1,3,5]triazine-5-yl)-L-prolyl)piperazin-1-yl)ethyl)morpholine] | 8 |
| Nc1nc(N2CCC[C@H]2C(=O)N2CCN(C3CCCCC3)CC2)nc2nc(-c3ccco3)nn12 [Example 54] | 6 |
| Nc1nc(N2CCC[C@H]2C(=O)N2CCC(F)(F)CC2)nc2nc(-c3ccco3)nn12 [Example 55, (S)-(1-(7-amino-2-(furan-2-yl)-[1,2,4]triazolo[1,5-a][1,3,5]triazin-5-yl)pyrrolidin-2-yl)(4,4-difluoropiperidin-1-yl)methanone] | 16 |
| Nc1nc(N2CCC[C@H]2C(=O)N2CCN(C3CCC(F)(F)CC3)CC2)nc2nc(-c3ccco3)nn12 [Example 56, (S)-(1-(7-amino-2-(furan-2-yl)-[1,2,4]triazolo[1,5-a][1,3,5]triazin-5-yl)pyrrolidin-2-yl)(4-(4,4-difluorocyclohexyl)piperazin-1-yl)methanone] | 8 |
| CC(C)[C@H](Nc1nc(N)n2nc(-c3ccco3)nc2n1)C(=O)N1CCN(Cc2ccc(F)cc2F)CC1 [Example 57, (S)-2-((7-amino-2-(furan-2-yl)-[1,2,4]triazolo[1,5-a][1,3,5]triazin-5-yl)amino)-1-(4-(2,4-difluorobenzyl)piperazin-1-yl)-3-methylbutan-1-one] | 7 |
| CC(C)[C@H](Nc1nc(N)n2nc(-c3ccco3)nc2n1)C(=O)N1CCN(Cc2ccccc2)CC1 [Example 58, (S)-2-((7-amino-2-(furan-2-yl)-[1,2,4]triazolo[1,5-a][1,3,5]triazin-5-yl)amino)-1-(4-benzylpiperazin-1-yl)-3-methylbutan-1-one] | 15 |
| CC(C)[C@H](Nc1nc(N)n2nc(-c3ccco3)nc2n1)C(=O)N1CCN(CC(C)(C)F)CC1 [Example 59, (S)-2-((7-amino-2-(furan-2-yl)-[1,2,4]triazolo[1,5-a][1,3,5]triazin-5-yl)amino)-1-(4-(2-fluoro-2-methylpropyl)piperazin-1-yl)-3-methylbutan-1-one] | 7 |
| COCCN1CCN(C(=O)[C@@H](Nc2nc(N)n3nc(-c4ccco4)nc3n2)C(C)C)CC1 [Example 60, (S)-2-((7-amino-2-(furan-2-yl)-[1,2,4]triazolo[1,5-a][1,3,5]triazin-5-yl)amino)-1-(4-(2-methoxyethyl)piperazin-1-yl)-3-methylbutan-1-one] | 18 |
| Cc1cccc(NC(=O)N2CCN(C(=O)[C@@H]3CCCN3c3nc(N)n4nc(-c5ccco5)nc4n3)CC2)c1 [Example 61, 4-((7-amino-2-(furan-2-yl)-[1,2,4]triazolo[1,5-a][1,3,5]triazin-5-yl)-L-prolyl)-N-(m-tolyl)piperazin-1-carboxamide] | 3 |
| COc1ccc(NC(=O)N2CCN(C(=O)[C@@H]3CCCN3c3nc(N)n4nc(-c5ccco5)nc4n3)CC2)cc1 [Example 62, 4-((7-amino-2-(furan-2-yl)-[1,2,4]triazolo[1,5-a][1,3,5]triazin-5-yl)-L-prolyl)-N-(4-methoxyphenyl)piperazin-1-carboxamide] | 6 |
| COc1cccc(C(=O)N2CCN(C(=O)[C@@H]3CCCN3c3nc(N)n4nc(-c5ccco5)nc4n3)CC2)c1 [Example 63] | 1 |
